PMC11790914, “Chemogenomics for steroid hormone receptors (NR3)” (Communications Chemistry, 2025)
Where “and” joins values, the source holds several entries; their conditions need not be identical. Equal entries are not always repeated.

Experiments:
[1] = target: T1, BRPF1 (Homo sapiens, UniProt P55201); assay: Liability panel screening by DSF: BRPF1; format: binding; conditions: DSF, 20 µM, n=2; read-out: Mean ΔTM BRPF1
T1 construct: This panel comprised ten highly ligandable kinases and bromodomains; made in house
T1 sequence (P55201 628-732 limits assumed): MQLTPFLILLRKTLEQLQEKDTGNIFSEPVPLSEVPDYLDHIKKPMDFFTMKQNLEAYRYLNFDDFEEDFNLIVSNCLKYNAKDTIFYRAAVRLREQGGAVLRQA
Outline: (§1)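 ∆Tm in K was taken from Boltzmann-fitted unfolding inflection points, run in duplicate with a temperature ramp of 3 °C per minute up to 85 °C. Each recombinant protein (2 µM) was in HEPES 10 mM pH 7.5 and NaCl 500 mM, with SYPRO Orange dye at 1:1000.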

[2] = target: T2, CDK2 (Homo sapiens, UniProt P24941); assay: Liability panel screening by DSF: CDK2; format: binding; conditions: DSF, 20 µM, n=2; read-out: Mean ΔTM CDK2
T2 construct: made in house
Outline: as §1

[3] = target: T3, CSNK1D (Homo sapiens, UniProt P48730); assay: Liability panel screening by DSF: CSNK1D; format: binding; conditions: DSF, 20 µM, n=2; read-out: Mean ΔTM CSNK1D
T3 construct: made in house
Outline: as §1

[4] = target: T4, GSK3B (Homo sapiens, UniProt P49841); assay: Liability panel screening by DSF: GSK3B; format: binding; conditions: DSF, 20 µM, n=2; read-out: Mean ΔTM GSK3B
T4 construct: made in house

[5] = tested on: Gal4-VP16; format: cell-based; conditions: 1 µM; vs. DMSO ctrl; single replicates n=1-3
[6] = tested on: NF-κB activity in HEK293 NF-κB reporter cells; assay: NF-kB activity assay (GFP reporter, ionomycin/PMA); format: cell-based; conditions: for Mean NFκB response: n=3; for NF-κB activity (inflammatory response to ionomycin/PMA): HEK293 NF-κB reporter cells, compounds at recommended concentrations, imaged over 24 h, n = 3
Outline: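 Reporter readout: GFP-expressing cells normalized to confluence, imaged every 90 min across 24 h after ionomycin (100 ng/mL)/PMA (10 ng/mL) stimulation of HEK293 cells pre-treated 4 h with compound (0.1% DMSO); triplicate independent experiments.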

[7] = tested on: HEK293T cells; assay: Cytotoxicity: apoptosis induction (caspase-3/7 DEVD fluorogenic DNA dye); conditions: 1 µM; HEK293T, 24 h; apoptotic cell count normalized to 0.1% DMSO; single replicates
Method: Cells were incubated with the test compounds at the indicated concentrations solubilized with 0.1% DMSO for 24 h. Growth-rate was determined based on the change in confluence over 24 h normalized to the change in confluence of cells treated with the 0.1% DMSO control (n = 10). Metabolic activity was determined with a water-soluble tetrazolium-8 (WST-8) assay (n = 8) after 24 h treatment. Apoptotic cells were detected with a fluorogenic DNA dye coupled to the caspase-3/7 recognition sequence (DEVD) after 24 h treatment and the apoptotic cell count was normalized to 0.1% DMSO treated cells (n = 6).
HEK293T cells (German Collection of Microorganisms and Cell Culture GmbH, DSMZ; #ACC305) were cultured in DMEM high glucose, supplemented with 10% fetal calf serum (FCS), sodium pyruvate (1 mM), penicillin (100 µ/mL) and streptomycin (100 µg/mL) at 37 °C and 5% (v/v) CO2, and seeded in pre-coated (10 µg/mL collagen G solution (Merck KgaA; #L7213) for 30 min at 37 °C) 96-well plates (2 × 10^5 cells per well). After 24 h, the cells were treated with the respective NR3 CG compound candidate at the recommended concentration, bexarotene (100 µM) or doxorubicin (30 µM) as positive controls in DMEM high glucose supplemented with 0.1% FCS, penicillin (100 µ/mL), streptomycin (100 µg/mL) and 0.1% DMSO, or 0.1% DMSO alone as an untreated control. Each sample was prepared in at least four biologically independent replicates. […] Thereafter, the medium was aspirated and the cells were incubated for 3 h with 90 µL DMEM high glucose supplemented with 0.2% FCS, penicillin (100 µ/mL) and streptomycin (100 µg/mL) and additionally containing 10 µL Cell Counting Kit 8 solution (CCK-8; MedChemExpress, Monmouth Junction, New York, USA; #HY-K0301), and absorbance was measured at 1 h, 2 h and 3 h of incubation at 450 nm on a Tecan Spark Cyto to assess metabolic activity of the cells. Before drug administration, after the first medium exchange, 24 h after drug administration, and after fluorescence imaging cell confluence was assessed using the Tecan Spark Cyto, to account for changes in cell confluence due to drug administration and cell handling. Compound effects on cell confluence, apoptosis, metabolic activity and necrosis were normalized to the vehicle control of each biological replicate individually.

[8] = tested on: NR3C1 (GR); conditions: (lit.); ref Supplementary Table 1; read-out: Potency [nM] EC50, NR3C1 (GR); cited from earlier work
[9] = tested on: HEK293T cells; assay: Cytotoxicity: growth-rate (change in confluence over 24 h); conditions: 1 µM, normalized to 0.1% DMSO control, single replicates (n=1...)
[10] = target: T5, AURKA (Homo sapiens, UniProt O14965); assay: Liability panel screening by DSF: AURKA; format: binding; conditions: DSF, 20 µM, n=2; read-out: Mean ΔTM AURKA
T5 construct: made in house
T5 sequence (O14965 1-403): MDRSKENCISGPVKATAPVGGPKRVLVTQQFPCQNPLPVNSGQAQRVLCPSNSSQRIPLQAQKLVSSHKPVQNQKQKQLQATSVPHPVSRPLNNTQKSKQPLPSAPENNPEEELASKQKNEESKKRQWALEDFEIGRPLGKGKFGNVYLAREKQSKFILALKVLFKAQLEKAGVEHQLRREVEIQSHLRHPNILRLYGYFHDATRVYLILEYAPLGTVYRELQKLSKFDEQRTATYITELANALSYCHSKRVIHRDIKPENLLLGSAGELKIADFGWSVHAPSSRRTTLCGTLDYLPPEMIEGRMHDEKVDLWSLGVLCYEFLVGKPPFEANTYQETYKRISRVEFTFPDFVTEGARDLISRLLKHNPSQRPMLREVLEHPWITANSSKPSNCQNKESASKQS
Outline: as §1

[11] = tested on: ATF6 activity in Hela ATF6 reporter cells; assay: Endoplasmic reticulum stress assay (ATF6 Renilla luciferase reporter, tunicamycin); format: cell-based; conditions: for ATF6 activity (tunicamycin-induced endoplasmic reticulum stress): Hela ATF6 reporter cells, tunicamycin 100 ng/mL, 18 h, compounds at recommended concentrations, n = 5; for activity at 1 µM: Homo sapiens, HeLa, single replicates n=1 to n=5, read-out: ER stress [rel. ATF6 activity]
Outline: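 ER stress was induced by 100 ng/mL tunicamycin added 4 h after compound (0.1% DMSO) to HeLa ATF6 reporter cells. After 18 h more, Renilla luciferase signal was read and expressed relative to DMSO control, n=5 biological replicates.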

[12] = target: T6, BRD4 (Homo sapiens, UniProt O60885); assay: Liability panel screening by DSF: BRD4; format: binding; conditions: DSF, 20 µM, n=2; read-out: Mean ΔTM BRD4
T6 construct: This panel comprised ten highly ligandable kinases and bromodomains; made in house
Outline: as §1

[13] = target: T7, MAPK1 (Homo sapiens, UniProt P28482); assay: Liability panel screening by DSF: MAPK1; format: binding; conditions: DSF, 20 µM, n=2; read-out: Mean ΔTM MAPK1
T7 construct: made in house
Outline: as §1

[14] = target: T8, FGFR3 (Homo sapiens, UniProt P22607); assay: Liability panel screening by DSF: FGFR3; format: binding; conditions: DSF, 20 µM, n=2; read-out: Mean ΔTM FGFR3
T8 construct: made in house
Outline: as §1

[15] = target: T9, ABL1 (Homo sapiens, UniProt P00519); assay: Liability panel screening by DSF: ABL1; format: binding; conditions: DSF, 20 µM, n=2; read-out: Mean ΔTM ABL1
T9 construct: made in house
Outline: as §1

[16] = tested on: HEK293T cells; assay: Cytotoxicity: necrosis induction (red fluorescent dye for permeable plasma membranes); format: cell-based; conditions: 1 µM, 24 h, necrotic cell count normalized to 0.1% DMSO, single replicates;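 further: compounds applied in DMEM high glucose with 0.1% FCS and 0.1% DMSO, necrotic HEK293T cells counted by red staining of cells whose plasma membranes had become permeable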
[17] = target: T10, TRIM24 (Homo sapiens, UniProt O15164); assay: Liability panel screening by DSF: TRIM24; format: binding; conditions: DSF, 20 µM, n=2; read-out: Mean ΔTM TRIM24
T10 construct: This panel comprised ten highly ligandable kinases and bromodomains; made in house
T10 sequence (O15164 899-1004 limits assumed): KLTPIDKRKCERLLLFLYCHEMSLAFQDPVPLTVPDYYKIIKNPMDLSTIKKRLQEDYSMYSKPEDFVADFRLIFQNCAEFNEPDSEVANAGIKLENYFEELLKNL
Outline: as §1

[18] = tested on: HEK293T cells; assay: Cytotoxicity: metabolic activity (WST-8 / CCK-8 assay); conditions: 1 µM; HEK293T, 24 h; WST-8; normalized to 0.1% DMSO; single replicates

T9 sequence (P00519 whole entry, species assumed): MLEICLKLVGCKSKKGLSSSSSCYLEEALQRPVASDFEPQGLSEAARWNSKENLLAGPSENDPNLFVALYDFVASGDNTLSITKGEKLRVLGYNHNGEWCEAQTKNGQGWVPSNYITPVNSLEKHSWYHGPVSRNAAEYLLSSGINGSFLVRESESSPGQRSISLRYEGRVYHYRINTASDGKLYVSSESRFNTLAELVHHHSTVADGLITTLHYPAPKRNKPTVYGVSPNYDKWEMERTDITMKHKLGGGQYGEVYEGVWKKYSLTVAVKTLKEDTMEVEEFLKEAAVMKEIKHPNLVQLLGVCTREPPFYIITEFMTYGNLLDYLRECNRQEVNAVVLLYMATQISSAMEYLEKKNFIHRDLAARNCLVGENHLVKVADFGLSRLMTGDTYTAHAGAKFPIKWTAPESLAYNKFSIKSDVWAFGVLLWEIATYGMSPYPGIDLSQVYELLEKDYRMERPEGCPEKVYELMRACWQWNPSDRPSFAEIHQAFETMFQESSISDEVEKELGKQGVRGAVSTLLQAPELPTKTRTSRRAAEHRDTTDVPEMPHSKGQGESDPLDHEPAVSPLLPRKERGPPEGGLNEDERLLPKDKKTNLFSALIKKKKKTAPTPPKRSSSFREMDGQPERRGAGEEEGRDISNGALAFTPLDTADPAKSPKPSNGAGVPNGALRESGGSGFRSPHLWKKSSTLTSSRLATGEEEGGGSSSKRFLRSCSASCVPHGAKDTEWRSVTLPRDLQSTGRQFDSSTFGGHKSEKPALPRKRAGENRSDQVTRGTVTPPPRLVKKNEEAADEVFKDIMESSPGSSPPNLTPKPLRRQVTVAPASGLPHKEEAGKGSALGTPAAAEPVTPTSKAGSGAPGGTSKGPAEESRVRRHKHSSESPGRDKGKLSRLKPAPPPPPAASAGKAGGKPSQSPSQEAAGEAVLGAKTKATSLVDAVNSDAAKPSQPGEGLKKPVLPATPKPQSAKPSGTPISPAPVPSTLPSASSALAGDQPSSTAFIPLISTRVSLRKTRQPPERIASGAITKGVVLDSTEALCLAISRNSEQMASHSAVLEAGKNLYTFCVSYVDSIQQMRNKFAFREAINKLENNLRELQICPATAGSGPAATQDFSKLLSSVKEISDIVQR
T3 sequence (P48730 whole entry, species assumed): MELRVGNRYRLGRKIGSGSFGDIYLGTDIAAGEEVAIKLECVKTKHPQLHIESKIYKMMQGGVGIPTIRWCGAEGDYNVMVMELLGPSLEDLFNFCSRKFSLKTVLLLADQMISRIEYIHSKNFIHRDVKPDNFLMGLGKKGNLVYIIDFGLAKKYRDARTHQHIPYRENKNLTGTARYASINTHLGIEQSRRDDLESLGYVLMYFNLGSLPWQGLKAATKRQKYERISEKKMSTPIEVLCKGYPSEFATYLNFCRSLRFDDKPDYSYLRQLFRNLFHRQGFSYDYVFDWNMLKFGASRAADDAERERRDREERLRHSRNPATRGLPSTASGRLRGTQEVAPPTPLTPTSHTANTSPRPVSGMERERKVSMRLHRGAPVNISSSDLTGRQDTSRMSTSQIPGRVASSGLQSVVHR
T4 sequence (P49841 whole entry, species assumed): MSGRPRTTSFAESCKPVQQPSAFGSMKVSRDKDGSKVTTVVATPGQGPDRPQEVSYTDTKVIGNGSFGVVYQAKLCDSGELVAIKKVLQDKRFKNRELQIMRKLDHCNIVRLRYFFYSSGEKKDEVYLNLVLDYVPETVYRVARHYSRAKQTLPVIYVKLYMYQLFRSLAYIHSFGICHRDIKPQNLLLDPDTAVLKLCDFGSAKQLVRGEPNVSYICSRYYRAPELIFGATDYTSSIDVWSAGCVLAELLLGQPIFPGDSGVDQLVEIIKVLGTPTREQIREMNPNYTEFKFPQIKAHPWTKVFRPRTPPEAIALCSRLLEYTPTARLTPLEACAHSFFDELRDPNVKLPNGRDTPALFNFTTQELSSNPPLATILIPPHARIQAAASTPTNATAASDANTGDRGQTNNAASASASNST
T7 sequence (P28482 whole entry, species assumed): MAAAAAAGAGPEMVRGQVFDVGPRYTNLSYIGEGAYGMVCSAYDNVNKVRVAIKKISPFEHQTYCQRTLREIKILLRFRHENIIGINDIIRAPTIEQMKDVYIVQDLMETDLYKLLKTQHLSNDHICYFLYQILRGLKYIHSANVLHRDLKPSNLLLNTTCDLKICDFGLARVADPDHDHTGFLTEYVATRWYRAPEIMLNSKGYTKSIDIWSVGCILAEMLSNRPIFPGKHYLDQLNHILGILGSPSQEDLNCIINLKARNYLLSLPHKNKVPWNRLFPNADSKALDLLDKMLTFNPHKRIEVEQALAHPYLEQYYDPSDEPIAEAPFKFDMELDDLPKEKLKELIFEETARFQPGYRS
T8 sequence (P22607 23-806, species assumed): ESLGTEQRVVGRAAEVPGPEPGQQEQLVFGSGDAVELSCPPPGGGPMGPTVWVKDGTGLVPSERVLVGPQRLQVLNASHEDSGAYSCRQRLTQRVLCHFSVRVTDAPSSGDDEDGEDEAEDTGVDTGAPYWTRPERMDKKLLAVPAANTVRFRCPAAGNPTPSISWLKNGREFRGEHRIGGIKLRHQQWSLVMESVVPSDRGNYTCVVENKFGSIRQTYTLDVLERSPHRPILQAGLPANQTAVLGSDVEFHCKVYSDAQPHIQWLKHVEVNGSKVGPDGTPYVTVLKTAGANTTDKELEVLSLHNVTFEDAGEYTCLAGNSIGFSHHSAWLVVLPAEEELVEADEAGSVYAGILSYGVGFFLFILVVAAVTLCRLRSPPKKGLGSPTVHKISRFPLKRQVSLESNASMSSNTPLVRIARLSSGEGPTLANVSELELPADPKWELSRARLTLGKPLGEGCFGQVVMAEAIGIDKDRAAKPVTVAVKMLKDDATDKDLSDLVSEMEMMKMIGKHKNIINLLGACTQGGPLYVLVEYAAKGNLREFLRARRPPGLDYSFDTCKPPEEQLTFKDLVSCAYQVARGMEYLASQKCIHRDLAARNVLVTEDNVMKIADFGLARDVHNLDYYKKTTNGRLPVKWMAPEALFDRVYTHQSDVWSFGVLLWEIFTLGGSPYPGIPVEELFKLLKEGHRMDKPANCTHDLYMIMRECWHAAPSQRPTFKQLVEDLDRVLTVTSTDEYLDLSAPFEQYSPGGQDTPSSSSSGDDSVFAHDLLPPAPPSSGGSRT

Row | SMILES | ΔTm at 20 µM [1] [°C] | ΔTm at 20 µM [2] [°C] | ΔTm at 20 µM [3] [°C] | ΔTm at 20 µM [4] [°C] | VP16 control [fold reporter gene activity] [5] | Mean NFκB response ([6]; 1 µM, 1,5 h) | Mean NFκB response ([6]; 1 µM, 4,5 h) | Mean NFκB response ([6]; 1 µM, 7,5 h) | Mean NFκB response ([6]; 1 µM, 10,5 h) | Mean NFκB response ([6]; 1 µM, 13,5 h) | Mean NFκB response ([6]; 1 µM, 16,6 h) | Mean NFκB response ([6]; 1 µM, 19,5 h) | Mean NFκB response ([6]; 1 µM, 22,5 h) | Mean NFκB response ([6]; 1 µM, 3 h) | Mean NFκB response ([6]; 1 µM, 6 h) | Mean NFκB response ([6]; 1 µM, 9 h) | Mean NFκB response ([6]; 1 µM, 12 h) | Mean NFκB response ([6]; 1 µM, 15 h) | Mean NFκB response ([6]; 1 µM, 18 h) | Mean NFκB response ([6]; 1 µM, 21 h) | also measured
1 | COc1cccc([C@@H](Oc2ccc3c(cnn3-c3ccc(F)cc3)c2)[C@H](C)NC(=O)C(F)(F)F)c1 [AZD5423] | -0.79 | -0.35 | -5.6 | 0.67 | 0.65 fold reporter gene activity and 0.98 fold reporter gene activity and 1.07 fold reporter gene activity | 2076.25 GFP+-cells/confluence ∙ 1000 | 2908.84 GFP+-cells/confluence ∙ 1000 | 5573.87 GFP+-cells/confluence ∙ 1000 | 12373.33 GFP+-cells/confluence ∙ 1000 | 17196.67 GFP+-cells/confluence ∙ 1000 | 21116.67 GFP+-cells/confluence ∙ 1000 | 24016.67 GFP+-cells/confluence ∙ 1000 | 27100.00 GFP+-cells/confluence ∙ 1000 | 2386.46 GFP+-cells/confluence ∙ 1000 | 3758.89 GFP+-cells/confluence ∙ 1000 | 9073.33 GFP+-cells/confluence ∙ 1000 | 14943.33 GFP+-cells/confluence ∙ 1000 | 19223.33 GFP+-cells/confluence ∙ 1000 | 22723.33 GFP+-cells/confluence ∙ 1000 | 25420.00 GFP+-cells/confluence ∙ 1000 | Mean NFκB response ([6]; 1 µM, 24 h): 27183.33 GFP+-cells/confluence ∙ 1000; NF-κB activity (inflammatory response to ionomycin/PMA) [6]: consistently delayed and strongly diminished NF-κB activity; Apoptosis induction [AI] [7]: 0.73 and 0.76 and 0.75 and 0.81 and 1.24 and 2.34; EC50 [8]: 0.9 ± 0.2 nM; Growth rate [GR] [9]: 0.81 and 2.24 and 0.71 and 1.01 and 0.62 and 1.06 and 0.88 and 0.60 and 1.03 and 2.44; ΔTm at 20 µM [10]: -3.28 °C; ATF6 activity (tunicamycin-induced endoplasmic reticulum stress) [11]: Consistently weaker ATF6 activity; activity at 1 µM [11]: 84%; ΔTm at 20 µM [12]: -1.37 °C; ΔTm at 20 µM [13]: -5.37 °C; ΔTm at 20 µM [14]: -1.62 °C; ΔTm at 20 µM [15]: -0.84 °C; Necrosis induction [NI] [16]: 0.69 and 0.73 and 0.65 and 0.80; ΔTm at 20 µM [17]: -2.31 °C; Metabolic activity [MA] [18]: 1.02 and 1.00 and 0.98 and 1.07 and 1.09 and 0.99 and 1.14 and 1.15
2 | C[C@H]1C[C@H]2[C@@H]3CCC4=CC(=O)C=C[C@]4(C)[C@@]3(Cl)[C@@H](O)C[C@]2(C)[C@@]1(O)C(=O)CO [Beclomethasone] | -0.66 | -0.29 | -0.04 | -0.75 | 1.09 fold reporter gene activity and 0.87 fold reporter gene activity and 0.97 fold reporter gene activity | 2314.11 GFP+-cells/confluence ∙ 1000 | 2712.93 GFP+-cells/confluence ∙ 1000 | 3902.54 GFP+-cells/confluence ∙ 1000 | 7904.68 GFP+-cells/confluence ∙ 1000 | 11292.34 GFP+-cells/confluence ∙ 1000 | 14142.72 GFP+-cells/confluence ∙ 1000 | 16024.63 GFP+-cells/confluence ∙ 1000 | 18119.25 GFP+-cells/confluence ∙ 1000 | 2367.97 GFP+-cells/confluence ∙ 1000 | 3065.61 GFP+-cells/confluence ∙ 1000 | 5609.44 GFP+-cells/confluence ∙ 1000 | 9507.58 GFP+-cells/confluence ∙ 1000 | 12732.70 GFP+-cells/confluence ∙ 1000 | 14975.90 GFP+-cells/confluence ∙ 1000 | 16981.30 GFP+-cells/confluence ∙ 1000 | Mean NFκB response ([6]; 1 µM, 24 h): 19467.95 GFP+-cells/confluence ∙ 1000; NF-κB activity (inflammatory response to ionomycin/PMA) [6]: consistently delayed and strongly diminished NF-κB activity; Apoptosis induction [AI] [7]: 0.38 and 0.63 and 0.67 and 0.78 and 0.69 and 1.03; EC50 [8]: 8 nM; Growth rate [GR] [9]: 0.71 and 0.34 and 0.95 and 1.09 and 0.91 and 1.08 and 0.81 and 0.17 and 2.51 and -0.30; ΔTm at 20 µM [10]: 0.03 °C; ATF6 activity (tunicamycin-induced endoplasmic reticulum stress) [11]: Consistently weaker ATF6 activity; activity at 1 µM [11]: 72%; ΔTm at 20 µM [12]: -0.57 °C; ΔTm at 20 µM [13]: 0.36 °C; ΔTm at 20 µM [14]: -0.31 °C; ΔTm at 20 µM [15]: -0.27 °C; Necrosis induction [NI] [16]: 0.78 and 0.71 and 0.63 and 0.85; ΔTm at 20 µM [17]: -1.53 °C; Metabolic activity [MA] [18]: 1.06 and 1.03 (2×) and 0.92 and 0.98 (2×) and 1.01 and 1.10
